Measured values taken from patent US8604001B2, “Use of sulfated oligosaccharides as slimming cosmetic ingredients” (priority 2007, dated 2013).

Experiments:
normal human adipocytes [1] = experiment: Inhibition of lipogenesis ([2-14C] acetate incorporation into lipids) in suspensions of human adipocytes; type: cell-based; details: 1 mM; for cpm (radioactivity of extracted lipids): 1 h preincubation, 4 h with [2-14C] acetate, control 472253
Description: The ex vivo inhibition of lipogenesis was evaluated in suspensions of human adipocytes which were isolated from a sampling taken during an abdominal plasty performed on a person. The adipocytes suspension was incubated for one hour at 37° C. with 3 or 5% of a solution of sulfated oligosaccharides prepared according to example 1 (hydrolysis time: 16 hours), or with a standard study solution (1 mM theophylline or caffeine), on in the absence of these solutions (control). Each assay was done in triplicate. A radioactive marker [2-^14C] acetate was then added to the various assays at a concentration of 2.5 μCi/mL. After 4 hours of incubation at 37° C., the lipids were extracted by a methanol/chloroform/water mixture and then dehydrated. The radioactivity, expressed in counts per minute (cpm), is then quantified through liquid scintigraphy (LKB 1210 Rackbeta). The statistical analysis was performed according to the Dunnett's multiple comparison test.

normal human adipocytes [2] = experiment: Stimulation of lipolysis (Non-Esterified Fatty Acids released) in suspensions of human adipocytes; type: cell-based; details: 1 mM; for NEFA: 2 hours at 37° C., control 96
Description: The lipolysis stimulation activity was evaluated in suspensions of human adipocytes isolated from a sample taken during an abdominal plasty performed on a person. The adipocytes suspension was incubated, for 2 hours at 37° C. with 3 or 5% of a solution of sulfated oligosaccharides prepared according to example 1 (16 hours of, hydrolysis time) in percentage of total weight of the culture, or with standard study solutions (1 mM theophylline or caffeine) or in the absence of solutions (control). Each assay was performed 6 times. At the end of the incubation period, the Non-Esterified Fatty Acids (NEFA) which were; present in the incubation mediums were measured with commercially available dosage kits (OXOID 46 551).

[3] = test system: thighs of healthy volunteers; experiment: Slimming effect of hydro-alcohol gels: thigh circumference measured in centimeters over 8 weeks; details: for change of thigh circumference versus T0: hydro-alcohol gel applied twice a day, 25 volunteers

| Structure (SMILES) | % Control (lipogenesis) (normal human adipocytes [1]) [%] | cpm (radioactivity of extracted lipids) (normal human adipocytes [1]) [cpm] | % Control (lipolysis, NEFA) (normal human adipocytes [2]) [%] | NEFA (normal human adipocytes [2]) [µM] | change of thigh circumference versus T0 ([3]; 14 days) [cm] | change of thigh circumference versus T0 ([3]; 28 days) [cm] | average decrease of the circumference of the thigh ([3]; 56 days, gel applied twice a day) [cm] | change of thigh circumference versus T0 ([3]; 56 days) [cm] | slimming effect (in words) ([3]; after 14 treatment days) |
| --- | --- | --- | --- | --- | --- | --- | --- | --- | --- |
| Cn1c(=O)c2[nH]cnc2n(C)c1=O [Theophylline, theophylline] | 6 | 27225 | 560 | 537 |  |  |  |  |  |
| Cn1c(=O)c2c(ncn2C)n(C)c1=O [Caffeine, caffeine] | 4 | 20741 | 547 | 525 | 0 | −0.1 | 0.3 | −0.3 | no slimming effect |
